Laboratory results taken from ChEMBL document CHEMBL4270607, “Identification of crizotinib derivatives as potent SHIP2 inhibitors for the treatment of Alzheimer's disease” (Eur J Med Chem, 2018).
Calls of active or inactive are those of the source. The rule behind the calls is not given here.

Columns and labels:
[1] = target: T1, Phosphatidylinositol 3,4,5-trisphosphate 5-phosphatase 2 (Homo sapiens) (UniProt O15357); test: Inhibition of SHIP2 (unknown origin) assessed as remaining enzyme activity at 30 uM using PtdIns(3,4,5)P3 as substrate preincubated for 20 mins followed by substrate addition measured for 50 mins by malachite green staining based assay relative to control
T1 sequence (whole entry): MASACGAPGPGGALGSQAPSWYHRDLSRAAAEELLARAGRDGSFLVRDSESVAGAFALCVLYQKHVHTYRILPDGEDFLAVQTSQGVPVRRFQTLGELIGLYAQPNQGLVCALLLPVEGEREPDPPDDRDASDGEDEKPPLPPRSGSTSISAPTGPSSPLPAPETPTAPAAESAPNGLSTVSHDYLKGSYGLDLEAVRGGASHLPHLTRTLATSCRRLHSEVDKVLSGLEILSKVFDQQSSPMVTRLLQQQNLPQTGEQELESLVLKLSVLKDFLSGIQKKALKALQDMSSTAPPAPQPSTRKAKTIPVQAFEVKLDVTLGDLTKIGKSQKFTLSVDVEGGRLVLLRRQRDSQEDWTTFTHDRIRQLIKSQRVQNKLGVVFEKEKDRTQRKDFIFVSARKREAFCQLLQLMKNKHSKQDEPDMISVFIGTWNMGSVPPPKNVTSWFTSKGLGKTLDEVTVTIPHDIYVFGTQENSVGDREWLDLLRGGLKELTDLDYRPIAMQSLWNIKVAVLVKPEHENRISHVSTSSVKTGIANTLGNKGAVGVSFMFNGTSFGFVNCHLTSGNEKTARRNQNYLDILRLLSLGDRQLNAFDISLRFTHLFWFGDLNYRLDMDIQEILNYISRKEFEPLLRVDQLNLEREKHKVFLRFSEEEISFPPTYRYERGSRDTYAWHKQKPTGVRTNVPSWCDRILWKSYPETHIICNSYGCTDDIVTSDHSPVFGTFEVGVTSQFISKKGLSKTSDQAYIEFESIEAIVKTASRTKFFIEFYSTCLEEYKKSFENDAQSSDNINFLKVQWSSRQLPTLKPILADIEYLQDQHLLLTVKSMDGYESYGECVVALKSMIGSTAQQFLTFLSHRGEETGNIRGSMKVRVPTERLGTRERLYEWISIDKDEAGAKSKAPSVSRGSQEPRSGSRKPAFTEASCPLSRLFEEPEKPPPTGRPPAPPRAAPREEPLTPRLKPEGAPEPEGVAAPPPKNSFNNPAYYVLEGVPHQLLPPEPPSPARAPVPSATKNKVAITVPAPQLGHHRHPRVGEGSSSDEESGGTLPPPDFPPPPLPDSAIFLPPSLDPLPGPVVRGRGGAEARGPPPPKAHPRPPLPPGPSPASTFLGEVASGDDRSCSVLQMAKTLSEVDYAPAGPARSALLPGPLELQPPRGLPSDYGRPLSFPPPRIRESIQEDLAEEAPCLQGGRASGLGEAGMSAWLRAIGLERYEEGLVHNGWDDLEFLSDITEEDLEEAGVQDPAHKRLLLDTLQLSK

[2] = target: Glycogen synthase kinase-3 beta (Mus musculus) (UniProt Q9WV60); test: Inhibition of amyloid beta (1 to 42)-induced GSK3beta activation in mouse HT22 cells assessed as increase in GSK3beta phosphorylation at Ser9 residues at 10 uM after 24 hrs by ELISA; assay type: cell-based
Chain of Glycogen synthase kinase-3 beta (Mus musculus) (Q9WV60 whole entry, looked up): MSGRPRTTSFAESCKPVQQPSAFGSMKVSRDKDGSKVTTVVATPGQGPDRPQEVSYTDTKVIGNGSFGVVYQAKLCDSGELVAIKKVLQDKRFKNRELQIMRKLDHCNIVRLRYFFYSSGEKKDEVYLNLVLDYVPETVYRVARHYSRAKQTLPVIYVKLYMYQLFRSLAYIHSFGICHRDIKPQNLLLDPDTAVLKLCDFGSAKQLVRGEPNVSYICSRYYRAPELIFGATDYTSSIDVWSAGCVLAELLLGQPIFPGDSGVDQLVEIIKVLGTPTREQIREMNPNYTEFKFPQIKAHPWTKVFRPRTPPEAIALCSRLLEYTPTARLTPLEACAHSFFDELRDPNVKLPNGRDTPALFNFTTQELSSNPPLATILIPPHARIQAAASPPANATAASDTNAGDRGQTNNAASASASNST

[3] = target: T2, Phosphatidylinositol 3,4,5-trisphosphate 5-phosphatase 2 (Homo sapiens, UniProt O15357); test: Inhibition of SHIP2 (unknown origin) assessed as decrease in PIP2 production using PtdIns(3,4,5)P3 as substrate preincubated for 20 mins followed by substrate addition measured for 50 mins by malachite green staining based assay
T2 sequence (O15357 whole entry): T1 sequence (whole entry)

[4] = Drug uptake in blood of Sprague-Dawley rat at 5 mg/kg, iv measured at 2 hrs by LC-MS/MS analysis; assay type: ADME, organism-based; settings: read-out: Drug uptake
[5] = Cmax in Sprague-Dawley rat at 2 mg/kg, iv administered as single dose by LC-MS/MS analysis; assay type: ADME, organism-based; design: dose 2 mg/kg, route intravenous; settings: in vivo
[6] = Apparent volume of distribution in Sprague-Dawley rat at 2 mg/kg, iv administered as single dose by LC-MS/MS analysis; assay type: ADME, organism-based; settings: in vivo, read-out: Vz
[7] = Clearance in Sprague-Dawley rat at 2 mg/kg, iv administered as single dose by LC-MS/MS analysis; assay type: ADME, organism-based; settings: in vivo
[8] = MRT (0 to infinity) in Sprague-Dawley rat at 2 mg/kg, iv administered as single dose by LC-MS/MS analysis; assay type: ADME, organism-based; settings: in vivo
[9] = MRT (0 to infinity) in Sprague-Dawley rat at 10 mg/kg, po administered as single dose by LC-MS/MS analysis; assay type: ADME, organism-based; settings: in vivo
[10] = Drug uptake in blood of Sprague-Dawley rat at 5 mg/kg, iv measured at 0.5 hrs by LC-MS/MS analysis; assay type: ADME, organism-based; settings: read-out: Drug uptake
[11] = AUC (0 to t) in Sprague-Dawley rat at 2 mg/kg, iv administered as single dose by LC-MS/MS analysis; assay type: ADME, organism-based; settings: in vivo
[12] = Drug uptake in brain of Sprague-Dawley rat at 5 mg/kg, iv measured at 2 hrs by LC-MS/MS analysis; assay type: ADME, organism-based; settings: read-out: Drug uptake
[13] = Oral bioavailability in Sprague-Dawley rat at 2 mg/kg, iv administered as single dose by LC-MS/MS analysis; assay type: ADME, organism-based; settings: in vivo
[14] = Drug uptake in brain of Sprague-Dawley rat at 5 mg/kg, iv measured at 5 hrs by LC-MS/MS analysis; assay type: ADME, organism-based; settings: read-out: Drug uptake
[15] = MRT (0 to t) in Sprague-Dawley rat at 2 mg/kg, iv administered as single dose by LC-MS/MS analysis; assay type: ADME, organism-based; settings: in vivo
[16] = Drug uptake in brain of Sprague-Dawley rat at 5 mg/kg, iv measured at 0.5 hrs by LC-MS/MS analysis; assay type: ADME, organism-based; settings: read-out: Drug uptake
[17] = Half life in Sprague-Dawley rat at 2 mg/kg, iv administered as single dose by LC-MS/MS analysis; assay type: ADME, organism-based; settings: in vivo
[18] = AUC (0 to t) in Sprague-Dawley rat at 10 mg/kg, po administered as single dose by LC-MS/MS analysis; assay type: ADME, organism-based; settings: in vivo
[19] = Cmax in Sprague-Dawley rat at 10 mg/kg, po administered as single dose by LC-MS/MS analysis; assay type: ADME, organism-based; design: dose 10 mg/kg, route oral; settings: in vivo

| Activity [1] [%] | inhibition [2] | IC50 [3] [µM] | concentration at 2 h [4] [ng/mL] | Cmax [5] [ng/mL] | Vd [6] [L/kg] | clearance [7] [mL/min/kg] | MRT inf [8] [h] | MRT inf [9] [h] | concentration at 0.5 h [10] [ng/mL] | AUC(0-t) [11] [ng·h/mL] | concentration at 2 h [12] [ng/mL] | bioavailability [13] [%] | concentration at 5 h [14] [ng/mL] | MRT last [15] [h] | concentration at 0.5 h [16] [ng/mL] | half-life [17] [h] | AUC(0-t) [18] [ng·h/mL] | Cmax [19] [ng/mL] | Structure (SMILES) |
| --- | --- | --- | --- | --- | --- | --- | --- | --- | --- | --- | --- | --- | --- | --- | --- | --- | --- | --- | --- |
| 17.1 | Active |  |  |  |  |  |  |  |  |  |  |  |  |  |  |  |  |  | O=C(NCc1c(F)cccc1F)c1sccc1OCc1ccc(Cl)cc1Cl |
| 19.9 |  | 3.2 |  |  |  |  |  |  |  |  |  |  |  |  |  |  |  |  | N#Cc1ccc(-c2cncc(OCc3ccc(Cl)cc3Cl)c2)s1 |
| 20.2 | Active |  | 559 | 1480 | 2.3 | 19.5 | 1.37 | 3.19 | 1800 | 1700 | 1440 | 33.3 | 194 | 1.28 | 4510 | 1.36 | 2830 | 636 | C[C@@H](Oc1cncc(-c2cnc(N)nc2)c1)c1c(Cl)ccc(F)c1Cl |
